Columns and labels:
Assay in all cases: relative viability (nuclei count vs DMSO), 5 days (fraction); higher = more cells survive
NCI-H596 = test system: NCI-H596
Outline: (§1)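 Lung cancer cell lines, seeded in 1536-well plates, were treated the following day by pin tool with a single drug or with five library-drug doses (not always all listed) in √10 steps on top of a fixed anchor-drug dose. Cells were fixed and nuclei stained in one step after 5 days, and nuclei were counted. Relative viability is the nuclei count for treated wells divided by that for vehicle wells, reported as medians of duplicate plates.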

NCI-H520 = test system: NCI-H520
Outline: as §1

NCI-H650 = test system: NCI-H650
Outline: as §1

A-427 = test system: A-427
Outline: as §1

H3255 = test system: H3255
Outline: as §1

NCI-H2087 = test system: NCI-H2087
Outline: as §1

NCI-H1650 = test system: NCI-H1650
Outline: as §1

CAL-12T = test system: CAL-12T
Outline: as §1

NCI-H2023 = test system: NCI-H2023
Outline: as §1

LCLC-97TM1 = test system: LCLC-97TM1
Outline: as §1

BEN = test system: BEN
Outline: as §1

NCI-H1915 = test system: NCI-H1915
Outline: as §1

201T = test system: 201T
Outline: as §1

NCI-H441 = test system: NCI-H441
Outline: as §1

LC-2-ad = test system: LC-2-ad
Outline: as §1

NCI-H1944 = test system: NCI-H1944
Outline: as §1

NCI-H460 = test system: NCI-H460
Outline: as §1

NCI-H1651 = test system: NCI-H1651
Outline: as §1

PC-3 [JPC-3] = test system: PC-3 [JPC-3]
Outline: as §1

NCI-H661 = test system: NCI-H661
Outline: as §1

Compound: CC(=O)O[C@@]12CO[C@@H]1C[C@H](O)[C@@]1(C)C(=O)[C@H](O)C3=C(C)[C@@H](OC(=O)[C@H](O)[C@@H](NC(=O)OC(C)(C)C)c4ccccc4)C[C@@](O)([C@@H](OC(=O)c4ccccc4)[C@H]21)C3(C)C [Docetaxel] + Nc1nc2[nH]cc(CCc3ccc(C(=O)N[C@@H](CCC(=O)O)C(=O)O)cc3)c2c(=O)[nH]1 [Pemetrexed] (partner 0.2 µM)
- relative viability (NCI-H596; first compound 0.0002 µM): 0.486
- relative viability (NCI-H596; first compound 0.000632 µM): 0.568
- relative viability (NCI-H596; first compound 0.002 µM): 0.675
- relative viability (NCI-H596; first compound 0.006325 µM): 0.441
- relative viability (NCI-H596; first compound 0.02 µM): 0.369
- relative viability (NCI-H520; first compound 0.0002 µM): 0.691
- relative viability (NCI-H520; first compound 0.000632 µM): 0.471
- relative viability (NCI-H520; first compound 0.002 µM): 0.316
- relative viability (NCI-H520; first compound 0.006325 µM): 0.207
- relative viability (NCI-H520; first compound 0.02 µM): 0.159
- relative viability (NCI-H650; first compound 0.0002 µM): 0.941
- relative viability (NCI-H650; first compound 0.000632 µM): 0.44
- relative viability (NCI-H650; first compound 0.002 µM): 0.393
- relative viability (NCI-H650; first compound 0.006325 µM): 0.237
- relative viability (NCI-H650; first compound 0.02 µM): 0.198
- relative viability (A-427; first compound 0.0002 µM): 0.886
- relative viability (A-427; first compound 0.000632 µM): 0.946
- relative viability (A-427; first compound 0.002 µM): 0.822
- relative viability (A-427; first compound 0.006325 µM): 0.323
- relative viability (H3255; first compound 0.0002 µM): 0.494
- relative viability (H3255; first compound 0.000632 µM): 0.595
- relative viability (H3255; first compound 0.002 µM): 0.437
- relative viability (H3255; first compound 0.006325 µM): 0.368
- relative viability (H3255; first compound 0.02 µM): 0.359
- relative viability (NCI-H2087; first compound 0.0002 µM): 0.553
- relative viability (NCI-H2087; first compound 0.000632 µM): 0.509
- relative viability (NCI-H2087; first compound 0.002 µM): 0.24
- relative viability (NCI-H2087; first compound 0.006325 µM): 0.168
- relative viability (NCI-H2087; first compound 0.02 µM): 0.104
- relative viability (NCI-H1650; first compound 0.0002 µM): 0.387
- relative viability (NCI-H1650; first compound 0.000632 µM): 0.412
- relative viability (NCI-H1650; first compound 0.002 µM): 0.28
- relative viability (NCI-H1650; first compound 0.006325 µM): 0.263
- relative viability (NCI-H1650; first compound 0.02 µM): 0.158
- relative viability (CAL-12T; first compound 0.0002 µM): 1.08
- relative viability (CAL-12T; first compound 0.000632 µM): 0.83
- relative viability (CAL-12T; first compound 0.002 µM): 0.241
- relative viability (CAL-12T; first compound 0.006325 µM): 0.272
- relative viability (CAL-12T; first compound 0.02 µM): 0.19
- relative viability (NCI-H2023; first compound 0.0002 µM): 0.208
- relative viability (NCI-H2023; first compound 0.000632 µM): 0.197
- relative viability (NCI-H2023; first compound 0.002 µM): 0.144
- relative viability (NCI-H2023; first compound 0.006325 µM): 0.124
- relative viability (NCI-H2023; first compound 0.02 µM): 0.0817
- relative viability (LCLC-97TM1; first compound 0.0002 µM): 0.167
- relative viability (LCLC-97TM1; first compound 0.000632 µM): 0.161
- relative viability (LCLC-97TM1; first compound 0.002 µM): 0.129
- relative viability (LCLC-97TM1; first compound 0.006325 µM): 0.109
- relative viability (LCLC-97TM1; first compound 0.02 µM): 0.0702
- relative viability (BEN; first compound 0.0002 µM): 0.68
- relative viability (BEN; first compound 0.000632 µM): 0.795
- relative viability (BEN; first compound 0.002 µM): 0.442
- relative viability (BEN; first compound 0.006325 µM): 0.449
- relative viability (BEN; first compound 0.02 µM): 0.325
- relative viability (NCI-H1915; first compound 0.0002 µM): 0.562
- relative viability (NCI-H1915; first compound 0.000632 µM): 0.47
- relative viability (NCI-H1915; first compound 0.002 µM): 0.327
- relative viability (NCI-H1915; first compound 0.006325 µM): 0.152
- relative viability (NCI-H1915; first compound 0.02 µM): 0.108
- relative viability (201T; first compound 0.0002 µM): 0.36
- relative viability (201T; first compound 0.000632 µM): 0.32
- relative viability (201T; first compound 0.002 µM): 0.312
- relative viability (201T; first compound 0.006325 µM): 0.424
- relative viability (201T; first compound 0.02 µM): 0.255
- relative viability (NCI-H441; first compound 0.000632 µM): 0.253
- relative viability (NCI-H441; first compound 0.002 µM): 0.206
- relative viability (NCI-H441; first compound 0.006325 µM): 0.198
- relative viability (LC-2-ad; first compound 0.0002 µM): 0.259
- relative viability (LC-2-ad; first compound 0.000632 µM): 0.221
- relative viability (LC-2-ad; first compound 0.006325 µM): 0.173
- relative viability (LC-2-ad; first compound 0.02 µM): 0.181
- relative viability (NCI-H1944; first compound 0.0002 µM): 0.619
- relative viability (NCI-H1944; first compound 0.000632 µM): 0.568
- relative viability (NCI-H1944; first compound 0.002 µM): 0.521
- relative viability (NCI-H1944; first compound 0.006325 µM): 0.248
- relative viability (NCI-H1944; first compound 0.02 µM): 0.118
- relative viability (NCI-H460; first compound 0.0002 µM): 0.0551
- relative viability (NCI-H460; first compound 0.000632 µM): 0.0652
- relative viability (NCI-H460; first compound 0.002 µM): 0.0375
- relative viability (NCI-H460; first compound 0.006325 µM): 0.0299
- relative viability (NCI-H460; first compound 0.02 µM): 0.021
- relative viability (NCI-H1651; first compound 0.0002 µM): 0.443
- relative viability (NCI-H1651; first compound 0.000632 µM): 0.593
- relative viability (NCI-H1651; first compound 0.002 µM): 0.447
- relative viability (NCI-H1651; first compound 0.006325 µM): 0.175
- relative viability (PC-3 [JPC-3]; first compound 0.0002 µM): 1.01
- relative viability (PC-3 [JPC-3]; first compound 0.000632 µM): 0.713
- relative viability (PC-3 [JPC-3]; first compound 0.002 µM): 0.513
- relative viability (PC-3 [JPC-3]; first compound 0.006325 µM): 0.265
- relative viability (PC-3 [JPC-3]; first compound 0.02 µM): 0.195
- relative viability (NCI-H661; first compound 0.0002 µM): 0.947
- relative viability (NCI-H661; first compound 0.000632 µM): 0.944
- relative viability (NCI-H661; first compound 0.002 µM): 0.799
- relative viability (NCI-H661; first compound 0.006325 µM): 0.572
- relative viability (NCI-H661; first compound 0.02 µM): 0.366
